Results published in ChEMBL document CHEMBL5576072, “Discovery of a potent and selective JAK1-targeting PROTAC degrader with anti-tumor activities” (Bioorg Med Chem Lett, 2024).
Activity calls are given as the source filed them. The calls are words filed in the database; no cut-off is given here.

Tests used:
[1] = system: THP-1; experiment: Antiproliferative activity against human THP-1 cells
[2] = system: HEL; experiment: Antiproliferative activity against HEL cells; settings: Homo sapiens
[3] = system: K562; experiment: Antiproliferative activity against human K562 cells
[4] = molecular target: Signal transducer and activator of transcription 3 (Homo sapiens) (UniProt P40763); experiment: Inhibition of STAT3 phosphorylation in HEL cells at 1 uM incubated for 24 hrs by Western blotting analysis; format: cell-based
Sequence of Signal transducer and activator of transcription 3 (Homo sapiens) (P40763 whole entry): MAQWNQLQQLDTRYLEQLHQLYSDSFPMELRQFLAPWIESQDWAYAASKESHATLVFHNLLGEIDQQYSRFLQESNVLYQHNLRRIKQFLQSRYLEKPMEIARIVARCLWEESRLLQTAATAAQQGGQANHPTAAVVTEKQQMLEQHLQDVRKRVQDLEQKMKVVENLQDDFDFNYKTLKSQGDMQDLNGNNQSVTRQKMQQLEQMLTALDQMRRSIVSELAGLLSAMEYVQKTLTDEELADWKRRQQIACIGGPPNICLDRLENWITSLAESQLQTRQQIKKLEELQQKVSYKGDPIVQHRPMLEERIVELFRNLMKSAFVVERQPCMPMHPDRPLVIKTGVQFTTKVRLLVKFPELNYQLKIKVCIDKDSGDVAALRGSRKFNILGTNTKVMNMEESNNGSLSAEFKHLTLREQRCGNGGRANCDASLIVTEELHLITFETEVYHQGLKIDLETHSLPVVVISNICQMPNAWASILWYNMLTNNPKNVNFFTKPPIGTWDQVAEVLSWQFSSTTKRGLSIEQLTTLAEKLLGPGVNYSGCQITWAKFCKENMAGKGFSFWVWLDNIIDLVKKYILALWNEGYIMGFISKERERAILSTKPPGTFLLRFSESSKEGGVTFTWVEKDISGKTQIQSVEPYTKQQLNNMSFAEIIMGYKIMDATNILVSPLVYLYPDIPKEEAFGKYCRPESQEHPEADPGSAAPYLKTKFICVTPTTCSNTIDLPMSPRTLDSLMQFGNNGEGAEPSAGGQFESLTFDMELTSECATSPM

[5] = molecular target: T1, Signal transducer and activator of transcription 1-alpha/beta (Homo sapiens) (UniProt P42224); experiment: Inhibition of STAT1 phosphorylation in HEL cells at 1 uM incubated for 24 hrs by Western blotting analysis; format: cell-based
T1 sequence (whole entry): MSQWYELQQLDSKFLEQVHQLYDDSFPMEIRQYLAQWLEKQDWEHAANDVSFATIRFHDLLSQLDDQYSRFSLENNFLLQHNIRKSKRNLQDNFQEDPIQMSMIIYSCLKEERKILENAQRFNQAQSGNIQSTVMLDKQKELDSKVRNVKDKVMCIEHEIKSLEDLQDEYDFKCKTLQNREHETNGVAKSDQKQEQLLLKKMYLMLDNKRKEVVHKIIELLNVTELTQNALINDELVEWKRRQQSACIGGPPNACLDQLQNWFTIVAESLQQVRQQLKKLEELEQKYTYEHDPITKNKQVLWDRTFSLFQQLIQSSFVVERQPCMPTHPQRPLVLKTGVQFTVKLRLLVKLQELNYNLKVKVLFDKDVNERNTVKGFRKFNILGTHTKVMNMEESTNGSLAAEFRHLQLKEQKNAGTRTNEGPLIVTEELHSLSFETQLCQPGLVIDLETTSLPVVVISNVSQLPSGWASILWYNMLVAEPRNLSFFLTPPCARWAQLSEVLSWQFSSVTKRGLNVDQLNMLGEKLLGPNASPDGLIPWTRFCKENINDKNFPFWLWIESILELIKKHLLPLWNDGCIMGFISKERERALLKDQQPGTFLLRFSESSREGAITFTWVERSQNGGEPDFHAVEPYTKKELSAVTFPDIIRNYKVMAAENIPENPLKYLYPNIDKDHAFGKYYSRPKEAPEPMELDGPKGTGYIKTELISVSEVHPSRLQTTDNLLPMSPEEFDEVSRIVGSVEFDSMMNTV

[6] = molecular target: T1, Signal transducer and activator of transcription 1-alpha/beta (Homo sapiens); experiment: Inhibition of STAT1 phosphorylation in HEL cells at 1 uM pretreated with momelotinib followed by compound addition and measured after 24 hrs by Western blotting analysis; format: cell-based
[7] = molecular target: Signal transducer and activator of transcription 3 (Homo sapiens) (UniProt P40763); experiment: Inhibition of STAT3 phosphorylation in HEL cells at 1 uM pretreated with MG132 followed by compound addition and measured after 24 hrs by Western blotting analysis; format: cell-based
[8] = molecular target: T1, Signal transducer and activator of transcription 1-alpha/beta (Homo sapiens); experiment: Inhibition of STAT1 phosphorylation in HEL cells at 1 uM pretreated with MG132 followed by compound addition and measured after 24 hrs by Western blotting analysis; format: cell-based
[9] = molecular target: Signal transducer and activator of transcription 3 (Homo sapiens) (UniProt P40763); experiment: Inhibition of STAT3 phosphorylation in HEL cells at 1 uM pretreated with momelotinib followed by compound addition and measured after 24 hrs by Western blotting analysis; format: cell-based

IC50 [1]	IC50 [3]	inhibition [4]	inhibition [5]	inhibition [6]	inhibition [7]	inhibition [8]	inhibition [9]	SMILES	IC50 [2]
> 50 µM	> 50 µM							N#CCNC(=O)c1ccc(-c2ccnc(Nc3ccc(N4CCC(C(=O)NCCCCCC#Cc5cccc6c5C(=O)N(C5CCC(=O)NC5=O)C6=O)CC4)cc3)n2)cc1 (stereo not given)	> 50 µM
> 50 µM	45.1 µM							N#CCNC(=O)c1ccc(-c2ccnc(Nc3ccc(N4CCC(C(=O)NCCCC#Cc5cccc6c5C(=O)N(C5CCC(=O)NC5=O)C6=O)CC4)cc3)n2)cc1 (stereo not given)	37.1 µM
10.5 µM	6.1 µM	Active	Active	inactive	inactive	inactive	inactive	N#CCNC(=O)c1ccc(-c2ccnc(Nc3ccc(N4CCC(C(=O)NCCCCC#Cc5cccc6c5C(=O)N(C5CCC(=O)NC5=O)C6=O)CC4)cc3)n2)cc1 (stereo not given)	1.3 µM
